Test results taken from DBAASP.
In brackets after ≈: the same amount, converted by molar mass. Several values for one entry are separate records, joined by “and”; a condition that tells them apart may be missing. Equal entries are not always repeated.

Assays:
Test in all cases: ≥ marks a high value that may be exact or a test limit, other limits are often not marked, values filed in µg/mL are converted to µM
[1] = tested on: Pseudomonas aeruginosa H1001
[2] = tested on: Staphylococcus aureus DSM 1104
[3] = tested on: Acinetobacter baumannii ATCC 17978
[4] = tested on: Escherichia coli DSM 1103
[5] = tested on: Staphylococcus epidermidis DSM 1798
[6] = tested on: Pseudomonas aeruginosa DSM 1117
[7] = tested on: Staphylococcus aureus HNCMO 112011
[8] = tested on: Escherichia coli ATCC 8739
[9] = tested on: Staphylococcus aureus NCTC 8325
[10] = tested on: Escherichia coli ATCC 25726
[11] = tested on: Staphylococcus aureus ATCC 25923
[12] = tested on: Batrachochytrium dendrobatidis
[13] = tested on: Escherichia coli ATCC 25922
[14] = tested on: Pseudomonas aeruginosa PAO1
Escherichia coli BL21 = tested on: Escherichia coli BL21
[15] = tested on: Streptococcus pyogenes M1T1 5448

CC[C@H](C)[C@H](NC(=O)[C@H](C)NC(=O)[C@@H](NC(=O)[C@H](CCCCN)NC(=O)[C@H](CCCCN)NC(=O)[C@H](Cc1cnc[nH]1)NC(=O)[C@@H](NC(=O)[C@@H](N)CCCN=C(N)N)C(C)C)[C@@H](C)CC)C(=O)N[C@@H](CO)C(=O)N[C@H](C(=O)O)C(C)C [RVHKKIAISV]
MIC [1]: ≥ 174 µM

CC[C@H](C)[C@H](NC(=O)[C@H](CCCCN)NC(=O)[C@H](CCCCN)NC(=O)[C@H](C)NC(=O)[C@H](CC(C)C)NC(=O)[C@H](C)NC(=O)[C@H](C)NC(=O)[C@H](CC(C)C)NC(=O)[C@H](C)NC(=O)[C@H](CCCCN)NC(=O)[C@H](CC(C)C)NC(=O)[C@H](CC(N)=O)NC(=O)[C@@H](NC(=O)[C@H](CCCCN)NC(=O)CNC(=O)[C@H](CC(C)C)NC(=O)[C@H](CC(C)C)NC(=O)[C@H](Cc1ccc(O)cc1)NC(=O)CNC(=O)[C@H](C)NC(=O)[C@H](CO)NC(=O)[C@H](CC(N)=O)NC(=O)[C@H](CC(C)C)NC(=O)[C@@H](NC(=O)[C@H](Cc1c[nH]c2ccccc12)NC(=O)CN)[C@@H](C)O)[C@@H](C)CC)C(=O)N[C@@H](CC(C)C)C(=O)O [GWTLNSAGYLLGKINLKALAALAKKIL]
MIC [2]: ≥ 43 µM
MIC [3]: 3.1 µM (≈ 8.81 µg/mL)
MIC [4]: ≥ 43 µM
MIC [5]: 5 µM (≈ 14.2 µg/mL)
MIC [6]: ≥ 86 µM
MIC [7]: 3.1 µM (≈ 8.81 µg/mL)
MIC [8]: 3.1 µM (≈ 8.81 µg/mL)

CC[C@H](C)[C@H](NC(=O)[C@@H]1CCCN1C(=O)[C@H](CC(C)C)NC(=O)[C@@H](N)Cc1ccccc1)C(=O)N[C@H](C(=O)NCC(=O)N[C@@H](CCCCN)C(=O)N[C@@H](CC(C)C)C(=O)N[C@@H](CC(C)C)C(=O)N[C@@H](CO)C(=O)NCC(=O)N[C@@H](CC(C)C)C(=O)N[C@@H](CC(C)C)C(N)=O)C(C)C [FLPIVGKLLSGLL]
MIC [9]: ≥ 110 µM
MIC [10]: ≥ 128 µM
MIC [11]: 8 µM (≈ 11 µg/mL)
MIC [12]: ≥ 49.6 µM

CSCC[C@H](NC(=O)[C@H](CCCCN)NC(=O)[C@H](Cc1ccccc1)NC(=O)[C@H](CC(N)=O)NC(=O)[C@H](CC(C)C)NC(=O)[C@@H]1CCCN1C(=O)[C@@H](N)CCCN=C(N)N)C(=O)N[C@@H](CC(C)C)C(=O)N[C@@H](CCCN=C(N)N)C(=O)N[C@@H](Cc1ccccc1)C(=O)N[C@@H](Cc1c[nH]c2ccccc12)C(=O)NCC(=O)N[C@@H](CCC(N)=O)C(=O)N[C@@H](CCC(N)=O)C(=O)N[C@@H](CCC(N)=O)C(=O)N[C@@H](CS)C(=O)N[C@@H](CCCN=C(N)N)C(=O)N[C@@H](CCCN=C(N)N)C(=O)N1CCC[C@H]1C(=O)N[C@@H](CC(C)C)C(=O)N[C@@H](Cc1ccc(O)cc1)C(=O)N[C@@H](CS)C(=O)N[C@@H](CCCN=C(N)N)C(=O)N[C@@H](CCCN=C(N)N)C(=O)N[C@@H](CCCN=C(N)N)C(=O)O [RPLNFKMLRFWGQQQCRRPLYCRRR]
MIC [3]: 3.1 µM (≈ 10.3 µg/mL)
MIC [7]: 3.1 µM (≈ 10.3 µg/mL)
MIC [8]: 3.1 µM (≈ 10.3 µg/mL)

CC[C@H](C)[C@H](NC(=O)[C@H](CCCCN)NC(=O)[C@H](CS)NC(=O)[C@H](C)NC(=O)[C@@H](NC(=O)[C@H](CC(C)C)NC(=O)[C@H](CC(N)=O)NC(=O)[C@@H](NC(=O)CNC(=O)[C@H](CC(C)C)NC(=O)[C@H](CCCNC(=N)N)NC(=O)[C@H](C)NC(=O)[C@H](CC(C)C)NC(=O)[C@H](CC(=O)O)NC(=O)[C@H](CCCCN)NC(=O)CNC(=O)[C@H](CC(C)C)NC(=O)CNC(=O)[C@H](CCCCN)NC(=O)[C@H](CO)NC(=O)[C@H](C)NC(=O)[C@H](Cc1ccccc1)NC(=O)[C@H](CCCCN)NC(=O)[C@H](C)NC(=O)[C@@H](NC(=O)CNC(=O)[C@H](CCCNC(=N)N)NC(=O)[C@H](Cc1ccccc1)NC(=O)[C@@H](NC(=O)[C@H](CO)NC(=O)[C@H](CO)NC(=O)[C@H](Cc1ccccc1)NC(=O)CN)[C@@H](C)CC)C(C)C)C(C)C)C(C)C)C(=O)N[C@@H](CO)C(=O)N[C@@H](CCCCN)C(=O)N[C@@H](CCC(N)=O)C(=O)N[C@@H](CS)C(=O)O [GFSSIFRGVAKFASKGLGKDLARLGVNLVACKISKQC]
MIC [13]: 10 µM (≈ 38.7 µg/mL)
MIC [12]: ≥ 50 µM and 25 µM

CC[C@H](C)[C@H](NC(=O)[C@H](CCCN=C(N)N)NC(=O)[C@H](CCCN=C(N)N)NC(=O)[C@@H]1CCCN1C(=O)[C@H](CC(C)C)NC(=O)[C@H](CCCN=C(N)N)NC(=O)[C@@H]1CCCN1C(=O)[C@H](CCCN=C(N)N)NC(=O)[C@@H]1CCCN1C(=O)[C@H](CC(C)C)NC(=O)[C@H](Cc1ccc(O)cc1)NC(=O)[C@@H]1CCCN1C(=O)[C@@H]1CCCN1C(=O)[C@H](CCCCN)NC(=O)[C@H](CC(=O)O)NC(=O)[C@@H](N)C(C)C)C(=O)N[C@@H](Cc1ccc(O)cc1)C(=O)N[C@@H](CC(N)=O)C(=O)N[C@@H](CCCN=C(N)N)C(=O)NCC(=O)O [VDKPPYLPRPRLPRRIYNRG]
MIC [1]: 0.11 µM (≈ 0.27 µg/mL)

CC(C)C[C@H](NC(=O)[C@H](CCCCN)NC(=O)[C@H](CCC(N)=O)NC(=O)[C@H](CC(N)=O)NC(=O)[C@H](CC(C)C)NC(=O)[C@H](CC(=O)O)NC(=O)[C@H](CCC(=O)O)NC(=O)[C@@H]1CCCN1C(=O)[C@@H](NC(=O)[C@H](C)NC(=O)CN)[C@@H](C)O)C(=O)N[C@@H](CO)C(N)=O [GATPEDLNQKLS]
MIC [1]: ≥ 196 µM

CC[C@H](C)[C@H](NC(=O)[C@H](CCCCN)NC(=O)[C@H](C)NC(=O)[C@H](CCCN=C(N)N)NC(=O)[C@H](CCCCN)NC(=O)CNC(=O)[C@H](CCCCN)NC(=O)[C@H](CCC(=O)O)NC(=O)[C@H](CCC(N)=O)NC(=O)[C@@H](NC(=O)[C@@H](NC(=O)[C@H](CCCCN)NC(=O)[C@H](CCCCN)NC(=O)[C@H](CC(C)C)NC(=O)[C@H](Cc1ccccc1)NC(=O)[C@H](CCC(N)=O)NC(=O)[C@H](CCCN=C(N)N)NC(=O)[C@@H](NC(=O)[C@@H](NC(=O)[C@H](CCC(=O)O)NC(=O)[C@H](CCCCN)NC(=O)CNC(=O)[C@H](C)N)[C@@H](C)O)[C@@H](C)CC)[C@@H](C)O)[C@@H](C)CC)C(=O)N[C@@H](Cc1c[nH]c2ccccc12)C(=O)N[C@@H](Cc1c[nH]c2ccccc12)C(=O)O [AGKETIRQFLKKTIQEKGKRAKIWW]
MIC [14]: 32 µM (≈ 97.4 µg/mL)
MIC (Escherichia coli BL21): 2 µM (≈ 6.09 µg/mL)
MIC [15]: 0.125 µM (≈ 0.381 µg/mL)

CC[C@H](C)[C@H](NC(=O)[C@H](Cc1c[nH]c2ccccc12)NC(=O)[C@H](CCC(N)=O)NC(=O)[C@H](CCCN=C(N)N)NC(=O)CNC(=O)[C@H](C)N)C(=O)N[C@@H](CCCCN)C(=O)N[C@@H](C)C(=O)N[C@@H](Cc1ccc(O)cc1)C(=O)N[C@@H](CC(C)C)C(=O)N[C@@H](CCCN=C(N)N)C(=O)N[C@@H](CCCN=C(N)N)C(=O)N[C@@H](CCC(=O)O)C(=O)N[C@H](C(=O)N[C@@H](CCCN=C(N)N)C(=O)N[C@@H](CCCCN)C(=O)N[C@@H](CCCN=C(N)N)C(=O)NCC(=O)N[C@@H](CCCN=C(N)N)C(=O)N[C@@H](CCCCN)C(=O)N[C@@H](C)C(=O)N[C@H](C(=O)N[C@H](C(=O)N[C@@H](C)C(=O)N[C@@H](Cc1c[nH]c2ccccc12)C(=O)O)[C@@H](C)CC)C(C)C)[C@@H](C)CC [AGRQWIKAYLRREIRKRGRKAVIAW]
MIC [14]: 16 µM (≈ 49.3 µg/mL)
MIC (Escherichia coli BL21): 2 µM (≈ 6.17 µg/mL)
MIC [15]: 2 µM (≈ 6.17 µg/mL)

CC[C@H](C)[C@H](NC(=O)[C@H](Cc1ccccc1)NC(=O)[C@H](C)NC(=O)[C@H](CCCCN)NC(=O)[C@H](CCCCN)NC(=O)CNC(=O)[C@H](CCCN=C(N)N)NC(=O)[C@H](CCCCN)NC(=O)[C@H](CCCN=C(N)N)NC(=O)[C@H](CC(C)C)NC(=O)[C@H](CCC(=O)O)NC(=O)[C@H](CCC(=O)O)NC(=O)[C@H](CC(C)C)NC(=O)[C@H](CC(C)C)NC(=O)[C@H](Cc1ccc(O)cc1)NC(=O)[C@H](CCCCN)NC(=O)[C@@H](NC(=O)[C@H](CC(C)C)NC(=O)[C@H](C)NC(=O)[C@H](CCC(N)=O)NC(=O)[C@H](CCCN=C(N)N)NC(=O)CNC(=O)[C@H](C)N)[C@@H](C)O)C(=O)N[C@@H](Cc1c[nH]c2ccccc12)C(=O)N[C@@H](Cc1c[nH]c2ccccc12)C(=O)O [AGRQALTKYLLEELRKRGKKAFIWW]
MIC [14]: > 128 µM
MIC (Escherichia coli BL21): 4 µM (≈ 12.3 µg/mL)
MIC [15]: 2 µM (≈ 6.13 µg/mL)
